Common to all, as to assay type: biochemical
One test deals with T1, Pd27 (with ΔNHAB1) (Phoenix dactylifera, UniProt A0A8B7BJV2).
T1 sequence (A0A8B7BJV2 1-205): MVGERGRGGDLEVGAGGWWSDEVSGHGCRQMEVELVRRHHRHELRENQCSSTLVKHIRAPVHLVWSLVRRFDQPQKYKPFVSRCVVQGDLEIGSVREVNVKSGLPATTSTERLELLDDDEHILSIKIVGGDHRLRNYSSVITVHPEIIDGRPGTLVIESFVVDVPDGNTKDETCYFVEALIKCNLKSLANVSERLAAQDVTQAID
T1 sequence (Q9CAJ0 179-511 partner limits assumed): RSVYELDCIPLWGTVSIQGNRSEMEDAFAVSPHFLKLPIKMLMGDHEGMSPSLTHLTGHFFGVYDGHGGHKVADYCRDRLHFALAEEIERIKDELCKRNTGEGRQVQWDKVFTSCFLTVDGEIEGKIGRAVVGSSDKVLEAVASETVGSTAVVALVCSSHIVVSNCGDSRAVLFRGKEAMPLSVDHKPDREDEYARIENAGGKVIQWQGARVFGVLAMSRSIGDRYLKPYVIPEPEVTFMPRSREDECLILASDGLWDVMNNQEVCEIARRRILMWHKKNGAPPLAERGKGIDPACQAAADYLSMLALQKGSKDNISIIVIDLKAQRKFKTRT
Description: pNPP phosphatase inhibition assay.

Another test deals with T2, Pd957 (with ΔNHAB1) (Phoenix dactylifera, UniProt A0A8B7BRF0).
T2 sequence (A0A8B7BRF0 1-215): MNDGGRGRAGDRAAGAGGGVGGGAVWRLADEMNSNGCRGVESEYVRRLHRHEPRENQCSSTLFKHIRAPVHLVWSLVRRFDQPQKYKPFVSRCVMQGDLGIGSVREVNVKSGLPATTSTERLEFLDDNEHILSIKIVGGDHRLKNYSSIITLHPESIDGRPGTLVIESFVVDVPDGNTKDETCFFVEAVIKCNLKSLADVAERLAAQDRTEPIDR
T2 sequence (Q9CAJ0 179-511 partner limits assumed): T1 sequence (Q9CAJ0 179-511 partner limits assumed)
The test can be described thus: pNPP phosphatase inhibition assay. Particulars: read-out: % inhibition of HAB1 at 10 μM.

The next test deals with T3, Pd32 (with PdPP2C55) (Phoenix dactylifera, UniProt A0A8B7C461).
T3 sequence (A0A8B7C461 1-202): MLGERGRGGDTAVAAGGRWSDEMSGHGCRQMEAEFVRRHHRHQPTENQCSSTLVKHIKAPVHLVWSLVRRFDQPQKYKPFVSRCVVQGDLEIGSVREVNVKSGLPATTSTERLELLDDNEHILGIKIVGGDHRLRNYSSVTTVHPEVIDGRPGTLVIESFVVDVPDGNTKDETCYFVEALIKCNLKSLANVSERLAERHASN
Description: phosphopeptide phosphatase inhibition assay. The following applies: read-out: % inhibition of PdPP2C55 at 10 μM ABA.

For another test, the target named is T4, Pd32 (with PdPP2C79) (Phoenix dactylifera, UniProt A0A8B7C461).
T4 sequence (A0A8B7C461 1-202): T3 sequence (A0A8B7C461 1-202)
The test can be described thus: phosphopeptide phosphatase inhibition assay. Particulars: read-out: % inhibition of PdPP2C79 at 10 μM ABA.

Usually inhibition stands for the change of the read-out against control, counted positive when it falls.

On to `CCCN1C(=O)CCc2cc(NS(=O)(=O)Cc3c(F)c(F)c(C)c(F)c3F)ccc21` [AMF4], for which the “% inhibition of HAB1 at 10 μM” value at Pd27 (with ΔNHAB1) (10 μM agonist, 1 μM ΔNHAB1, 2 μM receptor, 15 mM pNPP, receptor agonist) was 80%. As for `CCCN1C(=O)CCc2cc(NS(=O)(=O)Cc3ccc(C)cc3)ccc21` [quinabactin], the results for the inhibition at 10 µM on Pd27 (with ΔNHAB1) (read-out: % inhibition of HAB1 at 10 μM) and at Pd957 (with ΔNHAB1) were 80% and 20 to 30%, respectively. As for `CC1=CC(=O)CC(C)(C)[C@@]1(O)/C=C/C(C)=C\C(=O)O` [ABA], the inhibition at 10 µM was found to be 80% at Pd32 (with PdPP2C55) and 30% at Pd32 (with PdPP2C79).

The values above are taken from article doi:10.1101/2020.09.29.318170v1 (biorxiv, 2020).
